In one series the target is T1, IL-23R (Homo sapiens, UniProt Q5VWK5).
T1 construct: host or cells: HEK293
T1 sequence (Q5VWK5 24-629): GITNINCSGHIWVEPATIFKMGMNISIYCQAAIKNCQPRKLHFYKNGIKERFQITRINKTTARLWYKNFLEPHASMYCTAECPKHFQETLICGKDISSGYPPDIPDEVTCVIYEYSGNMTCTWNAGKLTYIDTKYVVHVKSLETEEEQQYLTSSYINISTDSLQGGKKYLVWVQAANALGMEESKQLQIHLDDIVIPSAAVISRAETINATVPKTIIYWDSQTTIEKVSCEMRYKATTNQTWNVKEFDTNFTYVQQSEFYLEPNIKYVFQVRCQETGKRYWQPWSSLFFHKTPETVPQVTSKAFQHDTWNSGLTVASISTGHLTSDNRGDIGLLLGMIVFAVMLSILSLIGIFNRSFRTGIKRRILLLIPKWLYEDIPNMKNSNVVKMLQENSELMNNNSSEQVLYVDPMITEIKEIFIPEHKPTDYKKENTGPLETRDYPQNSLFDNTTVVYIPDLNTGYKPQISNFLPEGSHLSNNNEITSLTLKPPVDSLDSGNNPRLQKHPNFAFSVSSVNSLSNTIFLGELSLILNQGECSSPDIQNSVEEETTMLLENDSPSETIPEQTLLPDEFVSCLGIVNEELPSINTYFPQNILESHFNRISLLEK
The series is described as follows: IL23R Reporter Assay. The class given is cell-based. Conditions: HEK293 cells containing IL-23R, IL-12RP1 and STAT-inducible firefly luciferase reporter; 10 ng/mL IL-23 (EC90); 5 h at 37° C.; read-out: IL23R Reporter Assay. In general terms: Reporter assays use an easily measured gene product as a stand-in for the process of interest.

Series [1] can be described thus: Exposed Polar Surface Area (EPSA). The class given is physicochemical. Conditions: SFC on Chirex 3014 column; sample 1 mM DMSO stock; read-out: EPSA. The method, boiled down: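 EPSA, in Å^2, is read from SFC retention time through a linear relationship established with eight calibration standards. Separation uses a Chirex 3014 stationary phase, 35 °C, 14 MPa back pressure, and a 5–60% methanol/ammonium formate modifier gradient in CO2.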

SMILES strings stand for the structures. pIC50: −log10 of the molar value. Starred links: 1 amine or outer side, 2 acyl side, 3 side chain; linkers in the order of their positions; H or OH if unused. Positions of bridges follow the written chain, without caps; N, C: chain ends. Non-standard residues stand in square brackets, D forms with d. Residues, ends and D or L forms follow the SMILES beside them. ξ: configuration not given here. *: point of attachment. Trp(7-(3-AcNH-Ph)) = CC(=O)Nc1cccc(-c2cccc3c(C[C@H](N)C(=O)O)c[nH]c23)c1; Me3N+(CH2)2O(CH2)2O(CH2)2CO = C[N+](C)(C)CCOCCOCCC(=O)*; CH2CH2OCH2CH2OCH2CH2NMe3+ = C[N+](C)(C)CCOCCOCC*; Trp(7-Me) = Cc1cccc2c(C[C@H](N)C(=O)O)c[nH]c12; Abu(4-yl) = O=C([C@H](CC[*:3])N[*:1])[*:2]; Hexanoyl(6-NMe3+) = C[N+](C)(C)CCCCCC(=O)*; X63 = C[N+]1(C)CCC(N[*:1])(C(=O)[*:2])CC1; 2Nal = N[C@@H](Cc1ccc2ccccc2c1)C(=O)O; AEF = NCCOc1ccc(C[C@H](N)C(=O)O)cc1; 3Pal = N[C@@H](Cc1cccnc1)C(=O)O; X14 = C[N+](C)(C)CCc1cn(CC*)nn1; Lys(Me) = CNCCCC[C@H](N)C(=O)O; X7 = COCCOCCOCCOCCOCCOCCC(=O)*; Pen = CC(C)(S)[C@H](N)C(=O)O; ξLys(Me) = CNCCCCC(N)C(=O)O; Thp = NC1(C(=O)O)CCOCC1; X17 = C[N+]1(CC*)CCOCC1; X3 = C[N+](C)(C)CCCCC*; Me2NCH2CH2 = CN(C)CC*; Sar = CNCC(=O)O

On to `COCCOCCOCCOCCOCCOCCC(=O)N[C@H](CCCNC(=N)N)C(=O)N[C@@H]1C(=O)N[C@@H](CC(N)=O)C(=O)N[C@@H]([C@@H](C)O)C(=O)N[C@@H](Cc2c[nH]c3c(-c4cccc(NC(C)=O)c4)cccc23)C(=O)N[C@@H](CCCCNC(C)=O)C(=O)N[C@H](C(=O)N[C@@H](Cc2ccc(OCCN)cc2)C(=O)N[C@@H](Cc2ccc3ccccc3c2)C(=O)NC2(C(=O)N[C@@H](CCC(=O)O)C(=O)N[C@@H](CC(N)=O)C(=O)N[C@@H](Cc3cccnc3)C(=O)N(C)CC(N)=O)CCOCC2)C(C)(C)SSC1(C)C` [compound 422] (X7-[dR][Pen]NT[Trp(7-(3-AcNH-Ph))]K(Ac)[Pen][AEF][2Nal][Thp]EN[3Pal][Sar]-NH2; disulfide 2-7 (inferred)), for which the pIC50 at IL-23R was 8.74. Also, the EPSA in series [1] came to 192 A^2.
For `CC(=O)Nc1cccc(-c2cccc3c(C[C@@H]4NC(=O)[C@H]([C@@H](C)O)NC(=O)[C@H](CC(=O)N(C)C)NC(=O)[C@@H](NC(=O)CCOCCOCC[N+](C)(C)C)C(C)(C)SSC(C)(C)[C@@H](C(=O)N[C@@H](Cc5ccc(OCCCCC[N+](C)(C)C)cc5)C(=O)N[C@@H](Cc5ccc6ccccc6c5)C(=O)NC5(C(=O)N[C@@H](CCCCN(C)C(C)=O)C(=O)N[C@@H](CC(N)=O)C(=O)N[C@@H](Cc6cccnc6)C(=O)N(C)CC(=O)N(C)C)CCOCC5)NC(=O)[C@H](CCCCN(C)C(C)=O)NC4=O)c[nH]c23)c1` [compound 294, cPEG3aCO-Pen(3)-N(N(me)2)-T-7(3NAcPh)W-K(NMeAc)-Pen(3)-TMAPF-2Nal-THP-K(NMeAc)-N-3Pya-Sar-CON(Me)2] ({Me3N+(CH2)2O(CH2)2O(CH2)2CO}-[Pen]D(NMe2)T[Trp(7-(3-AcNH-Ph))][Lys(Me)](Ac)[Pen]Y(X3)[2Nal][Thp][Lys(Me)](Ac)N[3Pal][Sar]-NMe2; disulfide 1-6 (inferred)), the pIC50 at IL-23R is 8.92. Besides, in series [1], the EPSA came to 157 A^2.
For `CC(=O)N(C)CCCC[C@@H]1NC(=O)[C@H](Cc2c[nH]c3c(C)cccc23)NC(=O)[C@H]([C@@H](C)O)NC(=O)[C@H](CC(=O)N(C)C)NC(=O)[C@@H](NC(=O)CCOCCOCC[N+](C)(C)C)C(C)(C)SSC(C)(C)[C@@H](C(=O)N[C@@H](Cc2ccc(OCCn3cc(CC[N+](C)(C)C)nn3)cc2)C(=O)N[C@@H](Cc2ccc3ccccc3c2)C(=O)NC2(C(=O)N[C@@H](CCCCN(C)C(C)=O)C(=O)N[C@@H](CC(N)=O)C(=O)N[C@@H](Cc3cccnc3)C(=O)N(C)CC(=O)N(C)C)CCOCC2)NC1=O` [compound 286, cPEG3aCO-Pen(3)-N(N(Me)2)-T-7MeW-K(NMeAc)-Pen(3)-Y(OTzlCh)-2Nal-THP-K(NMeAc)-N-3Pya-Sar-CON(Me)2] ({Me3N+(CH2)2O(CH2)2O(CH2)2CO}-[Pen]D(NMe2)T[Trp(7-Me)][Lys(Me)](Ac)[Pen]Y(X14)[2Nal][Thp][Lys(Me)](Ac)N[3Pal][Sar]-NMe2; disulfide 1-6), the pIC50 at IL-23R is 8.49. In addition, the EPSA in series [1] was 149 A^2.
Regarding `CC(=O)N(C)CCCC[C@@H]1NC(=O)[C@H](Cc2c[nH]c3c(C)cccc23)NC(=O)[C@H]([C@@H](C)O)NC(=O)[C@H](CC(=O)N(C)C)NC(=O)[C@@H](NC(=O)CCOCCOCC[N+](C)(C)C)C(C)(C)SSC(C)(C)[C@@H](C(=O)N[C@@H](Cc2ccc(OCCN)cc2)C(=O)N[C@@H](Cc2ccc3ccccc3c2)C(=O)NC2(C(=O)N[C@@H](CCN(C)C(C)=O)C(=O)N[C@@H](CC(N)=O)C(=O)N[C@@H](Cc3cccnc3)C(=O)N(C)CC(=O)N(C)C)CCC(F)(F)C2)NC1=O` (single isomer, unassigned) [compound 179, cPEG3aCO-Pen(3)-N(N(Me)2)-T-7MeW-K(NMeAc)-Pen(3)-AEF-2Nal-diFCpx-Dab(NMeAc)-N-3Pya-Sar-CON(Me)2], the pIC50 on IL-23R is 8.52. For the same molecule, the EPSA in series [1] came out at 147 A^2.
For `CC(=O)N(C)CCCCC(NC(=O)C1(NC(=O)[C@H](Cc2ccc3ccccc3c2)NC(=O)[C@H](Cc2ccc(OCCOCCOCC[N+](C)(C)C)cc2)NC(=O)[C@@H]2CSCC[C@H](NC(=O)CCOCCOCC[N+](C)(C)C)C(=O)N[C@@H](CC(=O)N(C)C)C(=O)N[C@@H]([C@@H](C)O)C(=O)N[C@@H](Cc3c[nH]c4c(C)cccc34)C(=O)N[C@@H](CCCCN(C)C(C)=O)C(=O)N2)CCOCC1)C(=O)N[C@@H](CC(N)=O)C(=O)N[C@@H](C)C(=O)N(C)CC(=O)N(C)C` (stereo partly drawn) [compound 476, cPEG3aCO-Abu(1)-N(N(Me)2)-T-7MeW-K(NMeAc)-C(1)-APEG3F-2Nal-THP-K(NMeAc)-N-A-Sar-CON(Me)2] ({Me3N+(CH2)2O(CH2)2O(CH2)2CO}-[Abu(4-yl)]D(NMe2)T[Trp(7-Me)][Lys(Me)](Ac)CY(CH2CH2OCH2CH2OCH2CH2NMe3+)[2Nal][Thp][ξLys(Me)](Ac)NA[Sar]-NMe2; thioether 1-6), on IL-23R, the pIC50 is under 5.59. Moreover, the EPSA in series [1] is 155 A^2.
In the case of `CC(=O)NCCCC[C@@H]1NC(=O)[C@H](Cc2c[nH]c3c(C)cccc23)NC(=O)[C@H]([C@@H](C)O)NC(=O)[C@H](CC(N)=O)NC(=O)[C@@H](NC(C)=O)C(C)(C)SSC(C)(C)[C@@H](C(=O)N[C@@H](Cc2ccc(OCCCCC[N+](C)(C)C)cc2)C(=O)N[C@@H](Cc2ccc3ccccc3c2)C(=O)NC2(C(=O)N[C@@H](CCC(=O)O)C(=O)N[C@@H](CC(N)=O)C(=O)N[C@@H](Cc3cccnc3)C(=O)N(C)CC(N)=O)CCOCC2)NC1=O` [compound 430, MeCO-Pen(3)-N-T-7MeW-K(Ac)-Pen(3)-TMAPF-2Nal-THP-E-N-3Pya-Sar-CONH2] (Ac-[Pen]NT[Trp(7-Me)]K(Ac)[Pen]Y(X3)[2Nal][Thp]EN[3Pal][Sar]-NH2; disulfide 1-6 (inferred)), the pIC50 at IL-23R was 8.59. Also, the EPSA in series [1] was found to be 167 A^2.
The matching figures for `CC(=O)N(C)CCCC[C@@H]1NC(=O)[C@H](Cc2c[nH]c3c(C)cccc23)NC(=O)[C@H]([C@@H](C)O)NC(=O)[C@H](CC(=O)N(C)C)NC(=O)[C@@H](NC(=O)CCOCCOCC[N+](C)(C)C)C(C)(C)SSC(C)(C)[C@@H](C(=O)N[C@@H](Cc2ccc(OCC[N+]3(C)CCOCC3)cc2)C(=O)N[C@@H](Cc2ccc3ccccc3c2)C(=O)NC2(C(=O)N[C@@H](CCCCN(C)C(C)=O)C(=O)N[C@@H](CC(N)=O)C(=O)N[C@@H](Cc3cccnc3)C(=O)N(C)CC(=O)N(C)C)CCOCC2)NC1=O` [compound 198, cPEG3aCO-Pen(3)-N(N(Me)2)-T-7MeW-K(NMeac)-Pen(3)-MMoEF-2Nal-THP-K(NMeAc)-N-3Pya-Sar-CON(Me)2] ({Me3N+(CH2)2O(CH2)2O(CH2)2CO}-[Pen]D(NMe2)T[Trp(7-Me)][Lys(Me)](Ac)[Pen]Y(X17)[2Nal][Thp][Lys(Me)](Ac)N[3Pal][Sar]-NMe2; disulfide 1-6): 8.51 and 144 A^2.
As to `CC(=O)N(C)CCCC[C@@H]1NC(=O)[C@H](Cc2c[nH]c3c(C)cccc23)NC(=O)[C@H]([C@@H](C)O)NC(=O)[C@H](CC(=O)N(C)C)NC(=O)[C@@H](NC(=O)CCOCCOCC[N+](C)(C)C)C(C)(C)SSC(C)(C)[C@@H](C(=O)N[C@@H](Cc2ccc(OCCCCC[N+](C)(C)C)cc2)C(=O)N[C@@H](Cc2c[nH]c3ccccc23)C(=O)NC2(C(=O)N[C@@H](CCCCN(C)C(C)=O)C(=O)N[C@@H](CC(N)=O)C(=O)N[C@@H](Cc3cccnc3)C(=O)N(C)CC(=O)N(C)C)CCOCC2)NC1=O` [compound 497, cPEG3aCO-Pen(3)-N(N(Me)2)-T-7MeW-K(NMeAc)-Pen(3)-TMApF-W-THP-K(NMeAc)-N-3Pya-Sar-CON(Me)2] ({Me3N+(CH2)2O(CH2)2O(CH2)2CO}-[Pen]D(NMe2)T[Trp(7-Me)][Lys(Me)](Ac)[Pen]Y(X3)W[Thp][Lys(Me)](Ac)N[3Pal][Sar]-NMe2; disulfide 1-6), at IL-23R, the pIC50 was 7.10. In addition, in series [1], the EPSA was determined as 162 A^2.
Take `Cc1cccc2c(C[C@@H]3NC(=O)[C@H]([C@@H](C)O)NC(=O)[C@H](CC(=O)N(C)C)NC(=O)[C@@H](NC(=O)CCCCC[N+](C)(C)C)C(C)(C)SSC(C)(C)[C@@H](C(=O)N[C@@H](Cc4ccc(OCCN(C)C)cc4)C(=O)N[C@@H](Cc4ccc5ccccc5c4)C(=O)NC4(C(=O)N[C@@H](CCC(=O)N(C)C)C(=O)N[C@@H](CC(N)=O)C(=O)N[C@@H](Cc5cccnc5)C(=O)N(C)CC(=O)N(C)C)CC[N+](C)(C)CC4)NC(=O)[C@H](CCC(=O)N(C)C)NC3=O)c[nH]c12` [compound 100, 5cpaCO-Pen(3)-N(N(Me)2)-T-7MeW-Q(N(Me)2)-Pen(3)-AEF(N(Me)2)-2Nal-Pip(NMe2)-Q(N(Me)2)-N-3Pya-Sar-CON(Me)2] ({Hexanoyl(6-NMe3+)}-[Pen]D(NMe2)T[Trp(7-Me)]E(NMe2)[Pen]Y(Me2NCH2CH2)[2Nal][X63]E(NMe2)N[3Pal][Sar]-NMe2; disulfide 1-6): the pIC50 at IL-23R is 8.03. Further, the EPSA in series [1] came out at 139 A^2.

The values above are taken from patent US20260022143A1, “Cyclic Peptide Inhibitors of IL-23” (JANSSEN PHARMACEUTICA NV, priority 2022, published 2026).
